Laboratory results reported in PubChem BioAssay (NCI).
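All cell lines were grown in 96-well plates and treated with compound for 48 hours. GI50 is the concentration that inhibits growth by half. TGI: total growth inhibition.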

Legend:
Experiment in all cases: NCI-60 cell line screen, 48 h
A549 NSCLC = tested on: A549 NSCLC
DU-145 prostate = tested on: DU-145 prostate
HOP-62 NSCLC = tested on: HOP-62 NSCLC
HT29 colon = tested on: HT29 colon
K-562 leukemia = tested on: K-562 leukemia
MCF7 breast = tested on: MCF7 breast
NCI-H460 lung = tested on: NCI-H460 lung
SK-MEL-5 melanoma = tested on: SK-MEL-5 melanoma
UACC-62 melanoma = tested on: UACC-62 melanoma
NCI-H226 lung = tested on: NCI-H226 lung

## COc1ccc2cc(C(=O)/C=C/c3cccc(Cl)c3Cl)ccc2c1
A549 NSCLC
  GI50: 10.9 µM
  TGI: > 100 µM
DU-145 prostate
  GI50: 9.57 µM
  TGI: > 55.9 µM
HOP-62 NSCLC
  GI50: 15.4 µM
  TGI: 38.9 µM
HT29 colon
  GI50: 7.33 µM
  TGI: > 64.2 µM
K-562 leukemia
  GI50: 4.93 µM
  TGI: > 100 µM
MCF7 breast
  GI50: 1.28 µM
  TGI: > 100 µM
NCI-H460 lung
  GI50: 10.1 µM
  TGI: > 100 µM
SK-MEL-5 melanoma
  TGI: 4.3 µM
UACC-62 melanoma
  GI50: 4.08 µM
  TGI: 28.4 µM

## C=C(CN(CC(=C)C(=O)c1ccccc1)C(C)(C)C)C(=O)c1ccccc1
A549 NSCLC
  TGI: > 77.7 µM
DU-145 prostate
  TGI: 40.3 µM
HT29 colon
  TGI: 41.9 µM
K-562 leukemia
  TGI: 21.1 µM
NCI-H226 lung
  TGI: 48.4 µM
NCI-H460 lung
  TGI: 43.2 µM
SK-MEL-5 melanoma
  TGI: 31.1 µM
UACC-62 melanoma
  TGI: 32.4 µM

## C=CCNC1=C(C(=O)OCC)C(=O)CO1
A549 NSCLC
  TGI: > 100 µM
HT29 colon
  TGI: > 100 µM
K-562 leukemia
  TGI: > 100 µM
NCI-H226 lung
  TGI: > 100 µM
NCI-H460 lung
  TGI: > 100 µM
SK-MEL-5 melanoma
  TGI: > 100 µM
UACC-62 melanoma
  TGI: > 100 µM

## FC(F)(F)c1ccc(C=NC23CC4CC(CC(C4)C2)C3)cc1
A549 NSCLC
  TGI: > 100 µM
HOP-62 NSCLC
  TGI: > 100 µM
HT29 colon
  TGI: > 100 µM
K-562 leukemia
  TGI: > 100 µM
NCI-H226 lung
  TGI: > 100 µM
NCI-H460 lung
  TGI: > 100 µM
SK-MEL-5 melanoma
  TGI: > 100 µM
UACC-62 melanoma
  TGI: > 100 µM

## Cc1c(O)c(=O)ccn1C1OC(CO)C(O)C1O (centres undefined)
A549 NSCLC
  TGI: > 100 µM
HOP-62 NSCLC
  TGI: > 100 µM
HT29 colon
  TGI: > 100 µM
K-562 leukemia
  TGI: > 100 µM
NCI-H226 lung
  TGI: > 100 µM
NCI-H460 lung
  TGI: > 100 µM
SK-MEL-5 melanoma
  TGI: > 100 µM
UACC-62 melanoma
  TGI: > 100 µM

## Cc1ccc(S(=O)(=O)CNC(=S)CCCC(=S)NCS(=O)(=O)c2ccc(C)cc2)cc1
A549 NSCLC
  TGI: > 100 µM
HOP-62 NSCLC
  TGI: > 100 µM
HT29 colon
  TGI: > 100 µM
K-562 leukemia
  TGI: > 100 µM
NCI-H226 lung
  TGI: > 100 µM
NCI-H460 lung
  TGI: > 100 µM
SK-MEL-5 melanoma
  TGI: > 100 µM
UACC-62 melanoma
  TGI: > 100 µM

## O=C(CC/C(C/C(=N/O)c1ccc(F)cc1)=N/O)N(Cc1ccccc1)Cc1ccccc1
A549 NSCLC
  TGI: > 100 µM
HOP-62 NSCLC
  TGI: > 100 µM
HT29 colon
  TGI: > 100 µM
K-562 leukemia
  TGI: > 100 µM
NCI-H226 lung
  TGI: > 100 µM
NCI-H460 lung
  TGI: > 100 µM
SK-MEL-5 melanoma
  TGI: > 100 µM
UACC-62 melanoma
  TGI: > 100 µM

## O=C1C(Cl)=C(Nc2ccc3cn[nH]c3c2)C(=O)c2ccccc21
A549 NSCLC
  GI50: 2.38 µM
  TGI: 5.86 µM
DU-145 prostate
  GI50: 1.17 µM
  TGI: 2.39 µM
HOP-62 NSCLC
  GI50: 2.15 µM
  TGI: 5.29 µM
HT29 colon
  GI50: 1.98 µM
  TGI: 3.72 µM
K-562 leukemia
  GI50: 0.526 µM
  TGI: 2.06 µM
MCF7 breast
  GI50: 1.09 µM
  TGI: 2.58 µM
NCI-H460 lung
  GI50: 1.7 µM
  TGI: 4.14 µM
SK-MEL-5 melanoma
  GI50: 0.308 µM
  TGI: 1.26 µM
UACC-62 melanoma
  GI50: 1.5 µM
  TGI: 2.93 µM

## CC(=O)O[C@H]1[C@@H]2[C@@H]3[C@@H](C[C@H]1C)[C@@H](C)CO[C@@]1(C)CC/C=C(/C)C[C@@H]2O[C@@H]31
A549 NSCLC
  TGI: > 100 µM
HOP-62 NSCLC
  TGI: > 100 µM
HT29 colon
  TGI: > 100 µM
K-562 leukemia
  TGI: > 100 µM
NCI-H226 lung
  TGI: > 100 µM
NCI-H460 lung
  TGI: > 100 µM
SK-MEL-5 melanoma
  TGI: > 100 µM
UACC-62 melanoma
  TGI: > 100 µM

## Cc1ccc(-c2ccc(Nc3c4ccccc4nc4ccccc34)cc2)cn1
A549 NSCLC
  TGI: 10.3 µM
HOP-62 NSCLC
  TGI: 3.77 µM
HT29 colon
  TGI: 4.75 µM
K-562 leukemia
  TGI: 10.7 µM
MCF7 breast
  TGI: 8.91 µM
NCI-H460 lung
  TGI: 5.3 µM
SK-MEL-5 melanoma
  TGI: 16.5 µM
UACC-62 melanoma
  TGI: 11.5 µM

## CCCCCCCCCCCCCC/C(C(=O)OC)=C(/O)C(=O)OCC
A549 NSCLC
  TGI: 64.9 µM
HOP-62 NSCLC
  TGI: > 100 µM
HT29 colon
  TGI: > 100 µM
K-562 leukemia
  TGI: > 100 µM
NCI-H226 lung
  TGI: > 100 µM
NCI-H460 lung
  TGI: > 100 µM
SK-MEL-5 melanoma
  TGI: > 100 µM
UACC-62 melanoma
  TGI: 65.1 µM

## C/C(=N\NC(=O)CC(=O)Nc1ccc(Cl)cc1)c1cc2ccccc2oc1=O
A549 NSCLC
  TGI: > 100 µM
HOP-62 NSCLC
  TGI: > 100 µM
HT29 colon
  TGI: > 100 µM
K-562 leukemia
  TGI: > 100 µM
NCI-H226 lung
  TGI: > 100 µM
NCI-H460 lung
  TGI: > 100 µM
SK-MEL-5 melanoma
  TGI: > 100 µM
UACC-62 melanoma
  TGI: > 100 µM

## O=C1c2cccnc2-c2nc(/C=C/c3ccccc3)cc3c2c1nc1ccccc13
A549 NSCLC
  GI50: 2.2 µM
  TGI: 4.34 µM
DU-145 prostate
  GI50: 1.76 µM
  TGI: 3.58 µM
HOP-62 NSCLC
  GI50: 2.78 µM
  TGI: 11.8 µM
HT29 colon
  GI50: 1.87 µM
  TGI: 3.97 µM
K-562 leukemia
  GI50: 1.43 µM
  TGI: 9.1 µM
MCF7 breast
  GI50: 0.899 µM
  TGI: 5.01 µM
NCI-H226 lung
  GI50: 10.1 µM
  TGI: 28 µM
NCI-H460 lung
  GI50: 0.354 µM
  TGI: 1.27 µM
UACC-62 melanoma
  GI50: 1.72 µM
  TGI: 3.28 µM

## O=C(O)c1cc2ccccc2c(N=Nc2c([N+](=O)[O-])cc([N+](=O)[O-])cc2S(=O)(=O)O)c1O
A549 NSCLC
  TGI: > 100 µM
HOP-62 NSCLC
  TGI: > 100 µM
HT29 colon
  TGI: > 100 µM
K-562 leukemia
  TGI: > 100 µM
NCI-H226 lung
  TGI: > 100 µM
SK-MEL-5 melanoma
  TGI: > 100 µM
UACC-62 melanoma
  TGI: > 100 µM

## CC1C=C(OC(=O)c2ccccc2)C(=O)C(n2cc(F)c(=O)n(C(=O)c3ccccc3)c2=O)O1 (centres undefined)
A549 NSCLC
  TGI: > 100 µM
HOP-62 NSCLC
  TGI: > 100 µM
HT29 colon
  TGI: > 100 µM
K-562 leukemia
  TGI: 55.1 µM
NCI-H460 lung
  TGI: > 100 µM
SK-MEL-5 melanoma
  TGI: > 100 µM
UACC-62 melanoma
  TGI: 98.6 µM

## Cn1cc2c(n1)c(N/N=C/c1ccccc1)nn1nnnc21
A549 NSCLC
  TGI: > 100 µM
HOP-62 NSCLC
  TGI: > 100 µM
HT29 colon
  TGI: > 100 µM
K-562 leukemia
  TGI: > 100 µM
NCI-H226 lung
  TGI: > 100 µM
NCI-H460 lung
  TGI: > 100 µM
SK-MEL-5 melanoma
  TGI: > 100 µM
UACC-62 melanoma
  TGI: > 100 µM
